Data reported in ChEMBL document CHEMBL1201862, “PubChem BioAssay data set” (2004).
Activity calls are given as the source filed them. Rule as the data show it: actives have a measured IC50 and inactives only a lower limit.

Target: Envelope glycoprotein gp160 (Human immunodeficiency virus 1, UniProt Q6QLK5)
Assay: cell-free HIV fusion peptide-binding blockers – biochemical, uHTS, fluorescence dequenching, […] (AID 1986)

Envelope glycoprotein gp160, sequence (Q6QLK5 whole entry, the tested form may be a part): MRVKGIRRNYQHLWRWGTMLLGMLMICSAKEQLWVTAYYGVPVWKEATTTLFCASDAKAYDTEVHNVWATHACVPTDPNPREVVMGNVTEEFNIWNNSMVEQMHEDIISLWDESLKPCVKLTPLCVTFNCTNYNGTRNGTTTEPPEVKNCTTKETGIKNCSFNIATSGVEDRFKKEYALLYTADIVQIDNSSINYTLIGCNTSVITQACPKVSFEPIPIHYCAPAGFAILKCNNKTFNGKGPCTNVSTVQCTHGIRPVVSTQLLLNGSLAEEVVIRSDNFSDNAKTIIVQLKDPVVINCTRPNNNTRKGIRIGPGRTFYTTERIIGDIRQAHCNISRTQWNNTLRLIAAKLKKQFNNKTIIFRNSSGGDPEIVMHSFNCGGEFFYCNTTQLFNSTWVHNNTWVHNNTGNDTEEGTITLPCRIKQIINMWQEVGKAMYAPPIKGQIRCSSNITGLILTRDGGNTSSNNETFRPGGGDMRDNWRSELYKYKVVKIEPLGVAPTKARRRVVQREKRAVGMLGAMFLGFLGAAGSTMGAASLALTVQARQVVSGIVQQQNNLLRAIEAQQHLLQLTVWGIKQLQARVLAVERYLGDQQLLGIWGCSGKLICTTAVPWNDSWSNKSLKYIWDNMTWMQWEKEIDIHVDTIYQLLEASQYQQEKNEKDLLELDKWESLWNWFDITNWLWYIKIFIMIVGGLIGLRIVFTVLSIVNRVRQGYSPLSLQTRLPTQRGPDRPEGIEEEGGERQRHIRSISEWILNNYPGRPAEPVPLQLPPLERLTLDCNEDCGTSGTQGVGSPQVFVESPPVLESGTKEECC

Row | Structure (SMILES) | IC50
1 | COc1cccc(-c2coc3c(C)c4oc(=O)c(CCC(=O)O)c(C)c4cc23)c1 | 22.7 µM (active)
2 | COc1cc(NS(=O)(=O)c2ccc(Nc3nc(-c4ccccc4)cs3)cc2)nc(OC)n1 | 20.4 µM (active)
